Non-standard residues stand in square brackets, D forms with d. Residues, ends and D or L forms follow the SMILES beside them. *: point of attachment. dAla(benzothien-2-yl) = N[C@H](Cc1cc2ccccc2s1)C(=O)O; dPhe(4-Cl) = N[C@H](Cc1ccc(Cl)cc1)C(=O)O; d1Nal = N[C@H](Cc1cccc2ccccc12)C(=O)O; d2Nal = N[C@H](Cc1ccc2ccccc2c1)C(=O)O; Lys(iPr) = CC(C)NCCCC[C@H](N)C(=O)O; NMeY = CN[C@@H](Cc1ccc(O)cc1)C(=O)O; X10 = Cc1ccc(S(=O)(=O)NNC(=O)*)cc1; dCit = NC(=O)NCCC[C@@H](N)C(=O)O; d3Pal = N[C@H](Cc1cccnc1)C(=O)O; Isonicotinoyl = O=C(c1ccncc1)*; Salicyloyl = O=C(c1ccccc1O)*; Nicotinoyl = O=C(c1cccnc1)*; Tos = Cc1ccc(S(=O)(=O)*)cc1; 2Furoyl = O=C(c1ccco1)*; azaGly = NNC(=O)O; βAla = NCCC(=O)O; Sar = CNCC(=O)O
Biological target: T1, LHRH (Rattus norvegicus, UniProt P30969)
T1 construct: endogenous in cells; host or cells: rat pituitary cells (own knowledge of the cited Haviv 1989 method)
T1 sequence (P30969 1-327): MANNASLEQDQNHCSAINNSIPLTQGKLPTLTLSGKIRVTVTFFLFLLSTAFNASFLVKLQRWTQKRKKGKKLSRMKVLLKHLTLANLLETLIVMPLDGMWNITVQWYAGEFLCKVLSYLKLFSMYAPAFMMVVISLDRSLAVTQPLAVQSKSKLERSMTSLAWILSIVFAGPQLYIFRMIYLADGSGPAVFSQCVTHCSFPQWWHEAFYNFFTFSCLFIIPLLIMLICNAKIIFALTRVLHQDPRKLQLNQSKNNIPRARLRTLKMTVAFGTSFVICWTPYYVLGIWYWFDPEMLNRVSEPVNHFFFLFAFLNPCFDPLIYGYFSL
Experiment: in vitro test for LHRH antagonist potency (pA2)
Assay type: cell-based
Details: negative logarithm of the antagonist concentration required to shift the response curve produced by the agonist leuprolide to two-fold higher concentration
Outline: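 Rat LHRH receptor in vitro functional test; pA2 = negative log of the antagonist concentration shifting the leuprolide agonist response curve to two-fold higher concentration.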

SMILES	Kb
CC(C)C[C@H](NC(=O)[C@@H](CCCCNC(=O)c1cccnc1)NC(=O)[C@H](Cc1ccc(O)cc1)N(C)C(=O)[C@H](CO)NC(=O)[C@@H](Cc1cc2ccccc2s1)NC(=O)[C@@H](Cc1ccc(Cl)cc1)NC(=O)NNC(=O)c1cccnc1)C(=O)N[C@@H](CCCCNC(C)C)C(=O)N1CCC[C@H]1C(=O)N[C@H](C)C(N)=O [Example 32, N-Nicotinyl-Azagly-D4ClPhe-DBal-Ser-NMeTyr-DLys(Nic)-Leu-Lys(Isp)-Pro-DAlaNH2] (Nicotinoyl-[azaGly][dPhe(4-Cl)][dAla(benzothien-2-yl)]S[NMeY][dK](Nicotinoyl)L[Lys(iPr)]P[dA]-NH2)	0.0141 nM
CC(C)C[C@H](NC(=O)[C@@H](CCCCNC(=O)c1cccnc1)NC(=O)[C@H](Cc1ccc(O)cc1)N(C)C(=O)[C@H](CO)NC(=O)[C@@H](Cc1cc2ccccc2s1)NC(=O)[C@@H](Cc1ccc(Cl)cc1)NC(=O)NNC(=O)c1ccco1)C(=O)N[C@@H](CCCCNC(C)C)C(=O)N1CCC[C@H]1C(=O)N[C@H](C)C(N)=O [Example 33a, N-(2-Furoyl)-Azagly-D4ClPhe-DBal-Ser-NMeTyr-DLys(Nic)-Leu-Lys(Isp)-Pro-DAlaNH2] (2Furoyl-[azaGly][dPhe(4-Cl)][dAla(benzothien-2-yl)]S[NMeY][dK](Nicotinoyl)L[Lys(iPr)]P[dA]-NH2)	0.00631 nM
CC(C)C[C@H](NC(=O)[C@@H](CCCCNC(=O)c1cccnc1)NC(=O)[C@H](Cc1ccc(O)cc1)N(C)C(=O)[C@H](CO)NC(=O)[C@@H](Cc1cc2ccccc2s1)NC(=O)[C@@H](Cc1ccc(Cl)cc1)NC(=O)NNC(=O)c1ccncc1)C(=O)N[C@@H](CCCCNC(C)C)C(=O)N1CCC[C@H]1C(=O)N[C@H](C)C(N)=O [Example 33b, N-Isonicotinyl-Azagly-D4ClPhe-DBal-Ser-NMeTyr-DLys(Nic)-Leu-Lys(Isp)-Pro-DAlaNH2] (Isonicotinoyl-[azaGly][dPhe(4-Cl)][dAla(benzothien-2-yl)]S[NMeY][dK](Nicotinoyl)L[Lys(iPr)]P[dA]-NH2)	0.02 nM
CC(C)C[C@H](NC(=O)[C@@H](CCCCNC(=O)c1cccnc1)NC(=O)[C@H](Cc1ccc(O)cc1)N(C)C(=O)[C@H](CO)NC(=O)[C@@H](Cc1cccc2ccccc12)NC(=O)[C@@H](Cc1ccc(Cl)cc1)NC(=O)NNC(=O)c1cccnc1)C(=O)N[C@@H](CCCCNC(C)C)C(=O)N1CCC[C@H]1C(=O)N[C@H](C)C(N)=O [Example 33c, N-Nicotinyl-Azagly-D4ClPhe-D1Nal-Ser-NMeTyr-DLys(Nic)-Leu-Lys(Isp)-Pro-DAlaNH2] (Nicotinoyl-[azaGly][dPhe(4-Cl)][d1Nal]S[NMeY][dK](Nicotinoyl)L[Lys(iPr)]P[dA]-NH2)	0.00501 nM
CC(C)C[C@H](NC(=O)[C@@H](CCCCNC(=O)c1cccnc1)NC(=O)[C@H](Cc1ccc(O)cc1)N(C)C(=O)[C@H](CO)NC(=O)[C@@H](Cc1cccc2ccccc12)NC(=O)[C@@H](Cc1ccc(Cl)cc1)NC(=O)CN(C)C(=O)CNC(=O)c1cccnc1)C(=O)N[C@@H](CCCCNC(C)C)C(=O)N1CCC[C@H]1C(=O)N[C@H](C)C(N)=O [Example 35a, Nic-Gly-Sar-D4ClPhe-D1Nal-Ser-NMeTyr-DLys(Nic)-Leu-Lys(Isp)-Pro-DAlaNH2] (Nicotinoyl-G[Sar][dPhe(4-Cl)][d1Nal]S[NMeY][dK](Nicotinoyl)L[Lys(iPr)]P[dA]-NH2)	0.1 nM
CC(C)C[C@H](NC(=O)[C@@H](CCCCNC(=O)c1cccnc1)NC(=O)[C@H](Cc1ccc(O)cc1)N(C)C(=O)[C@H](CO)NC(=O)[C@@H](Cc1cc2ccccc2s1)NC(=O)[C@@H](Cc1ccc(Cl)cc1)NC(=O)CN(C)C(=O)CNC(=O)c1cccnc1)C(=O)N[C@@H](CCCCNC(C)C)C(=O)N1CCC[C@H]1C(=O)N[C@H](C)C(N)=O [Example 35b, Nic-Gly-Sar-D4ClPhe-DBal-Ser-NMeTyr-DLys(Nic)-Leu-Lys(Isp)-Pro-DAlaNH2] (Nicotinoyl-G[Sar][dPhe(4-Cl)][dAla(benzothien-2-yl)]S[NMeY][dK](Nicotinoyl)L[Lys(iPr)]P[dA]-NH2)	0.0794 nM
CC(C)C[C@H](NC(=O)[C@@H](CCCCNC(=O)c1cccnc1)NC(=O)[C@H](Cc1ccc(O)cc1)N(C)C(=O)[C@H](CO)NC(=O)[C@@H](Cc1cc2ccccc2s1)NC(=O)[C@@H](Cc1ccc(Cl)cc1)NC(=O)[C@@H](Cc1ccc2ccccc2c1)NC(=O)CCNC(=O)c1cccnc1)C(=O)N[C@@H](CCCCNC(C)C)C(=O)N1CCC[C@H]1C(=O)N[C@H](C)C(N)=O [Example 36, N-Nicotinyl-3-Aminopropionyl-D2Nal-D4ClPhe-DBal-Ser-NMeTyr-DLys(N-epsilon-Nicotinyl) -Leu-Lys(N-epsilon-Isopropyl)-Pro-DAlaNH2] ({Nicotinoyl-βAla}-[d2Nal][dPhe(4-Cl)][dAla(benzothien-2-yl)]S[NMeY][dK](Nicotinoyl)L[Lys(iPr)]P[dA]-NH2)	0.0224 nM
CC(C)C[C@H](NC(=O)[C@@H](CCCCNC(=O)c1cccnc1)NC(=O)[C@H](Cc1ccc(O)cc1)N(C)C(=O)[C@H](CO)NC(=O)[C@@H](Cc1cccnc1)NC(=O)[C@@H](Cc1ccc(Cl)cc1)NC(=O)[C@@H](Cc1ccc2ccccc2c1)NC(=O)NNC(=O)c1ccco1)C(=O)N[C@@H](CCCCNC(C)C)C(=O)N1CCC[C@H]1C(=O)N[C@H](C)C(N)=O [Example 37a, N-(2-Furoyl)-Azagly-D2Nal-D4ClPhe-D3Pal-Ser-NMeTyr-DLys(Nic)-Leu-Lys(Isp)- Pro-DAlaNH2] (2Furoyl-[azaGly][d2Nal][dPhe(4-Cl)][d3Pal]S[NMeY][dK](Nicotinoyl)L[Lys(iPr)]P[dA]-NH2)	0.00631 nM
CC(C)C[C@H](NC(=O)[C@@H](CCCCNC(=O)c1cccnc1)NC(=O)[C@H](Cc1ccc(O)cc1)N(C)C(=O)[C@H](CO)NC(=O)[C@@H](Cc1cccnc1)NC(=O)[C@@H](Cc1ccc(Cl)cc1)NC(=O)[C@@H](Cc1ccc2ccccc2c1)NC(=O)NNC(=O)c1cccnc1)C(=O)N[C@@H](CCCCNC(C)C)C(=O)N1CCC[C@H]1C(=O)N[C@H](C)C(N)=O [Example 37b, N-Nicotinyl-Azagly-D2Nal-D4ClPhe-D3Pal-Ser-NMeTyr-DLys(Nic)-Leu-Lys(Isp)-Pro-DAlaNH2] (Nicotinoyl-[azaGly][d2Nal][dPhe(4-Cl)][d3Pal]S[NMeY][dK](Nicotinoyl)L[Lys(iPr)]P[dA]-NH2)	0.0158 nM
CC(C)C[C@H](NC(=O)[C@@H](CCCCNC(=O)c1cccnc1)NC(=O)[C@H](Cc1ccc(O)cc1)N(C)C(=O)[C@H](CO)NC(=O)[C@@H](Cc1cccnc1)NC(=O)[C@@H](Cc1ccc(Cl)cc1)NC(=O)[C@@H](Cc1ccc2ccccc2c1)NC(=O)NNC(=O)c1ccccc1O)C(=O)N[C@@H](CCCCNC(C)C)C(=O)N1CCC[C@H]1C(=O)N[C@H](C)C(N)=O [Example 37c, N-Salicyl-Azagly-D2Nal-D4ClPhe-D3Pal-Ser-NMeTyr-DLys(Nic)-Leu-Lys(Isp)-Pro-DAlaNH2] (Salicyloyl-[azaGly][d2Nal][dPhe(4-Cl)][d3Pal]S[NMeY][dK](Nicotinoyl)L[Lys(iPr)]P[dA]-NH2)	0.0251 nM
CC(C)C[C@H](NC(=O)[C@@H](CCCCNC(=O)c1cccnc1)NC(=O)[C@H](Cc1ccc(O)cc1)N(C)C(=O)[C@H](CO)NC(=O)[C@@H](Cc1cccnc1)NC(=O)[C@@H](Cc1ccc(Cl)cc1)NC(=O)[C@@H](Cc1ccc2ccccc2c1)NC(=O)NNC(=O)c1ccncc1)C(=O)N[C@@H](CCCCNC(C)C)C(=O)N1CCC[C@H]1C(=O)N[C@H](C)C(N)=O [Example 37d, N-Isonicotinyl-Azagly-D2Nal-D4ClPhe-D3Pal-Ser-NMeTyr-DLys(Nic)-Leu-Lys(Isp)-Pro-DAlaNH2] (Isonicotinoyl-[azaGly][d2Nal][dPhe(4-Cl)][d3Pal]S[NMeY][dK](Nicotinoyl)L[Lys(iPr)]P[dA]-NH2)	0.126 nM
Cc1ccc(S(=O)(=O)NNC(=O)N[C@H](Cc2ccc3ccccc3c2)C(=O)N[C@H](Cc2ccc(Cl)cc2)C(=O)N[C@H](Cc2cccnc2)C(=O)N[C@@H](CO)C(=O)N(C)[C@@H](Cc2ccc(O)cc2)C(=O)N[C@H](CCCCNC(=O)c2cccnc2)C(=O)N[C@@H](CC(C)C)C(=O)N[C@@H](CCCCNC(C)C)C(=O)N2CCC[C@H]2C(=O)N[C@H](C)C(N)=O)cc1 [Example 37e, N-Tosyl-Azagly-D2Nal-D4ClPhe-D3Pal-Ser-NMeTyr-DLys(Nic)-Leu-Lys(Isp)-Pro-DAlaNH2] (X10-[d2Nal][dPhe(4-Cl)][d3Pal]S[NMeY][dK](Nicotinoyl)L[Lys(iPr)]P[dA]-NH2)	0.0224 nM
CC(C)C[C@H](NC(=O)[C@@H](CCCCNC(=O)c1cccnc1)NC(=O)[C@H](Cc1ccc(O)cc1)N(C)C(=O)[C@H](CO)NC(=O)[C@@H](Cc1cccnc1)NC(=O)[C@@H](Cc1ccc(Cl)cc1)NC(=O)[C@@H](Cc1ccc2ccccc2c1)NC(=O)CNC(=O)[C@@H]1CCCO1)C(=O)N[C@@H](CCCCNC(C)C)C(=O)N1CCC[C@H]1C(=O)N(C)CC(N)=O [Example 39, N-(S)-Tetrahydrofur-2-oyl-Gly-D2Nal-D4ClPhe-D3Pal-Ser-NMeTyr-DLys(Nicotinyl)-Leu-Lys(Isp)-Pro-SarNH2]	0.0155 nM
Cc1ccc(S(=O)(=O)N[C@H](Cc2ccc3ccccc3c2)C(=O)N[C@H](Cc2ccc(Cl)cc2)C(=O)N[C@H](Cc2cccnc2)C(=O)N[C@@H](CO)C(=O)N(C)[C@@H](Cc2ccc(O)cc2)C(=O)N[C@H](CCCNC(N)=O)C(=O)N[C@@H](CC(C)C)C(=O)N[C@@H](CCCNC(=N)N)C(=O)N2CCC[C@H]2C(=O)N[C@H](C)C(N)=O)cc1 [Example 66, N-Tosyl-D2Nal-D4ClPhe-D3Pal-Ser-NMeTyr-DCit-Leu-Arg-Pro-DAlaNH2] (Tos-[d2Nal][dPhe(4-Cl)][d3Pal]S[NMeY][dCit]LRP[dA]-NH2)	2.63 nM

Source: patent US5502035A, “N-terminus modified analogs of LHRH” (Tap Holdings Inc., priority 1994, dated 1996)
